Results: patent US6525001B1, “Substituted pyrimidine and pyridine herbicides” (Mid-American Commercialization Corporation, priority 1997, dated 2003)

What was measured:
Assay in all cases: Test B pre-/postemergence
Format in all cases: in vivo
Set-up in all cases: key: 0 is no effect; 10 is complete control
soybean (Glycine max) = test system: soybean (Glycine max)
Summary of the method: (§1)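 Response scores run from 0, meaning no effect, to 10, meaning complete control, assigned by eye relative to controls twelve to sixteen days after spraying. Treatment was both preemergence on planted seed and postemergence on plants at the 1- to 4-leaf stage.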

[1] = test system: crabgrass (Digitaria sanguinalis)
Summary of the method: as §1

corn (Zea mays) = test system: corn (Zea mays)
Summary of the method: as §1

[2] = test system: bedstraw (Galium aparine)
Summary of the method: as §1

rape (Brassica napus) = test system: rape (Brassica napus)
Summary of the method: as §1

[3] = test system: broadleaf signalgrass (Brachiaria decumbens)
Summary of the method: as §1

[4] = test system: pigweed (Amaranthus retroflexus)
Summary of the method: as §1

wild oat (Avena fatua) = test system: wild oat (Avena fatua)
Summary of the method: as §1

[5] = test system: blackgrass (Alopecurus myosuroides)
Summary of the method: as §1

[6] = test system: momingglory (Ipomoea hederacea)
Summary of the method: as §1

[7] = test system: sugar beet (Beta vulgaris)
Summary of the method: as §1

[8] = test system: velvetleaf (Abutilon theophrasti)
Summary of the method: as §1

[9] = test system: wheat (Triticum aestivum)
Summary of the method: as §1

[10] = test system: cocklebur (Xanthium strumarium)
Summary of the method: as §1

[11] = Preemergence, Rate 62 g/ha, scale of 0 to 10

Cc1cnc(-n2ccc(C(F)(F)F)n2)nc1C(=O)c1ccc(C(F)(F)F)cc1 [Compound 65]
10: Plant response rating, Morningglory ([6]; Rate 500 g/ha, Postemergence)
3: Bedstraw plant response rating ([2]; Rate 125 g/ha, Postemergence) | Redroot pigweed plant response rating ([4]; Rate 125 g/ha, Postemergence)
7: Plant response rating, Bedstraw ([2]; Rate 250 g/ha, Postemergence) | Plant response rating, Bedstraw ([2]; Rate 500 g/ha, Postemergence) | Plant response rating, Redroot pigweed ([4]; Rate 500 g/ha, Postemergence) | Sugarbeets plant response rating ([7]; Rate 62 g/ha, Postemergence) | Sugarbeets plant response rating ([7]; Rate 125 g/ha, Postemergence)
8: Plant response rating, Morningglory ([6]; Rate 250 g/ha, Postemergence) | Plant response rating, Sugarbeets ([7]; Rate 250 g/ha, Postemergence) | Plant response rating, Sugarbeets ([7]; Rate 500 g/ha, Postemergence)
1: Soybean plant response rating (soybean (Glycine max); Rate 62 g/ha, Postemergence) | Crabgrass plant response rating ([1]; Rate 62 g/ha, Postemergence) | Crabgrass plant response rating ([1]; Rate 125 g/ha, Postemergence) | Plant response rating, Crabgrass ([1]; Rate 250 g/ha, Postemergence) | Plant response rating, Crabgrass ([1]; Rate 500 g/ha, Postemergence) | Corn plant response rating (corn (Zea mays); Rate 62 g/ha, Postemergence) | Corn plant response rating (corn (Zea mays); Rate 125 g/ha, Postemergence) | Plant response rating, Corn (corn (Zea mays); Rate 250 g/ha, Postemergence) | Plant response rating, Corn (corn (Zea mays); Rate 500 g/ha, Postemergence) | Rape plant response rating (rape (Brassica napus); Rate 62 g/ha, Postemergence) | Rape plant response rating (rape (Brassica napus); Rate 125 g/ha, Postemergence) | B. signalgrass plant response rating ([3]; Rate 62 g/ha, Postemergence) | B. signalgrass plant response rating ([3]; Rate 125 g/ha, Postemergence) | Plant response rating, B. signalgrass ([3]; Rate 250 g/ha, Postemergence) | Plant response rating, B. signalgrass ([3]; Rate 250 g/ha, Preemergence) | Plant response rating, B. signalgrass ([3]; Rate 500 g/ha, Postemergence) | Wild oats plant response rating (wild oat (Avena fatua); Rate 62 g/ha, Postemergence) | Wild oats plant response rating (wild oat (Avena fatua); Rate 125 g/ha, Postemergence) | Plant response rating, Wild oats (wild oat (Avena fatua); Rate 250 g/ha, Postemergence) | Plant response rating, Wild oats (wild oat (Avena fatua); Rate 500 g/ha, Postemergence) | Morningglory plant response rating ([6]; Rate 125 g/ha, Postemergence) | Velvetleaf plant response rating ([8]; Rate 62 g/ha, Postemergence) | Velvetleaf plant response rating ([8]; Rate 125 g/ha, Postemergence) | Plant response rating, Velvetleaf ([8]; Rate 500 g/ha, Preemergence) | Wheat plant response rating ([9]; Rate 62 g/ha, Postemergence) | Wheat plant response rating ([9]; Rate 125 g/ha, Postemergence) | Cocklebur plant response rating ([10]; Rate 62 g/ha, Postemergence) | Cocklebur plant response rating ([10]; Rate 125 g/ha, Postemergence) | Plant response rating, Cocklebur ([10]; Rate 250 g/ha, Postemergence)
5: Plant response rating, Morningglory ([6]; Rate 500 g/ha, Preemergence)
6: Plant response rating, Redroot pigweed ([4]; Rate 250 g/ha, Postemergence)
2: Soybean plant response rating (soybean (Glycine max); Rate 125 g/ha, Postemergence) | Plant response rating, Soybean (soybean (Glycine max); Rate 250 g/ha, Postemergence) | Plant response rating, Soybean (soybean (Glycine max); Rate 500 g/ha, Postemergence) | Plant response rating, Rape (rape (Brassica napus); Rate 250 g/ha, Postemergence) | Plant response rating, Rape (rape (Brassica napus); Rate 500 g/ha, Postemergence) | Plant response rating, B. signalgrass ([3]; Rate 500 g/ha, Preemergence) | Redroot pigweed plant response rating ([4]; Rate 62 g/ha, Postemergence) | Plant response rating, Velvetleaf ([8]; Rate 250 g/ha, Postemergence) | Plant response rating, Velvetleaf ([8]; Rate 500 g/ha, Postemergence) | Plant response rating, Wheat ([9]; Rate 250 g/ha, Postemergence) | Plant response rating, Wheat ([9]; Rate 500 g/ha, Postemergence) | Plant response rating, Cocklebur ([10]; Rate 500 g/ha, Postemergence)
0: Plant response rating, Soybean (soybean (Glycine max); [11]) | Plant response rating, Soybean (soybean (Glycine max); Rate 125 g/ha, Preemergence) | Plant response rating, Soybean (soybean (Glycine max); Rate 250 g/ha, Preemergence) | Plant response rating, Soybean (soybean (Glycine max); Rate 500 g/ha, Preemergence) | Plant response rating, Crabgrass [1, 11] | Plant response rating, Crabgrass ([1]; Rate 125 g/ha, Preemergence) | Plant response rating, Crabgrass ([1]; Rate 250 g/ha, Preemergence) | Plant response rating, Crabgrass ([1]; Rate 500 g/ha, Preemergence) | Plant response rating, Corn (corn (Zea mays); [11]) | Plant response rating, Corn (corn (Zea mays); Rate 125 g/ha, Preemergence) | Plant response rating, Corn (corn (Zea mays); Rate 250 g/ha, Preemergence) | Plant response rating, Corn (corn (Zea mays); Rate 500 g/ha, Preemergence) | Plant response rating, Bedstraw [2, 11] | Bedstraw plant response rating ([2]; Rate 62 g/ha, Postemergence) | Plant response rating, Bedstraw ([2]; Rate 125 g/ha, Preemergence) | Plant response rating, Bedstraw ([2]; Rate 250 g/ha, Preemergence) | Plant response rating, Bedstraw ([2]; Rate 500 g/ha, Preemergence) | Plant response rating, Rape (rape (Brassica napus); [11]) | Plant response rating, Rape (rape (Brassica napus); Rate 125 g/ha, Preemergence) | Plant response rating, Rape (rape (Brassica napus); Rate 250 g/ha, Preemergence) | Plant response rating, Rape (rape (Brassica napus); Rate 500 g/ha, Preemergence) | B. signalgrass plant response rating ([3]; Rate 62 g/ha, Preemergence) | Plant response rating, B. signalgrass ([3]; Rate 125 g/ha, Preemergence) | Plant response rating, Redroot pigweed [4, 11] | Plant response rating, Redroot pigweed ([4]; Rate 125 g/ha, Preemergence) | Plant response rating, Redroot pigweed ([4]; Rate 250 g/ha, Preemergence) | Plant response rating, Redroot pigweed ([4]; Rate 500 g/ha, Preemergence) | Plant response rating, Wild oats (wild oat (Avena fatua); [11]) | Plant response rating, Wild oats (wild oat (Avena fatua); Rate 125 g/ha, Preemergence) | Plant response rating, Wild oats (wild oat (Avena fatua); Rate 250 g/ha, Preemergence) | Plant response rating, Wild oats (wild oat (Avena fatua); Rate 500 g/ha, Preemergence) | Plant response rating, Blackgrass [5, 11] | Blackgrass plant response rating ([5]; Rate 62 g/ha, Postemergence) | Blackgrass plant response rating ([5]; Rate 125 g/ha, Postemergence) | Plant response rating, Blackgrass ([5]; Rate 125 g/ha, Preemergence) | Plant response rating, Blackgrass ([5]; Rate 250 g/ha, Postemergence) | Plant response rating, Blackgrass ([5]; Rate 250 g/ha, Preemergence) | Plant response rating, Blackgrass ([5]; Rate 500 g/ha, Postemergence) | Plant response rating, Blackgrass ([5]; Rate 500 g/ha, Preemergence) | Plant response rating, Morningglory [6, 11] | Plant response rating, Morningglory ([6]; Rate 125 g/ha, Preemergence) | Plant response rating, Morningglory ([6]; Rate 250 g/ha, Preemergence) | Plant response rating, Sugarbeets [7, 11] | Plant response rating, Sugarbeets ([7]; Rate 125 g/ha, Preemergence) | Plant response rating, Sugarbeets ([7]; Rate 250 g/ha, Preemergence) | Plant response rating, Sugarbeets ([7]; Rate 500 g/ha, Preemergence) | Plant response rating, Velvetleaf [8, 11] | Plant response rating, Velvetleaf ([8]; Rate 125 g/ha, Preemergence) | Plant response rating, Velvetleaf ([8]; Rate 250 g/ha, Preemergence) | Plant response rating, Wheat [9, 11] | Plant response rating, Wheat ([9]; Rate 125 g/ha, Preemergence) | Plant response rating, Wheat ([9]; Rate 250 g/ha, Preemergence) | Plant response rating, Wheat ([9]; Rate 500 g/ha, Preemergence) | Plant response rating, Cocklebur [10, 11] | Plant response rating, Cocklebur ([10]; Rate 125 g/ha, Preemergence) | Plant response rating, Cocklebur ([10]; Rate 250 g/ha, Preemergence) | Plant response rating, Cocklebur ([10]; Rate 500 g/ha, Preemergence)
